Test results taken from ChEMBL document CHEMBL5625250, “Discovery of novel flavonoid-based CDK9 degraders for prostate cancer treatment via a PROTAC strategy” (Eur J Med Chem, 2023).
Values after ≈ are worked out from the molar mass of the structure shown. One block for each compound: values may come before it. Active and inactive are the calls of the source. No cut-off for these calls is given here.

How the values were obtained:
[1] = target: T1, Cyclin-dependent kinase 9 (Homo sapiens, UniProt P50750); assay: Inhibition of CDK9 (unknown origin) at 20 nM in presence of ATP by ADP-Glo kinase assay relative to control
T1 sequence (P50750 whole entry): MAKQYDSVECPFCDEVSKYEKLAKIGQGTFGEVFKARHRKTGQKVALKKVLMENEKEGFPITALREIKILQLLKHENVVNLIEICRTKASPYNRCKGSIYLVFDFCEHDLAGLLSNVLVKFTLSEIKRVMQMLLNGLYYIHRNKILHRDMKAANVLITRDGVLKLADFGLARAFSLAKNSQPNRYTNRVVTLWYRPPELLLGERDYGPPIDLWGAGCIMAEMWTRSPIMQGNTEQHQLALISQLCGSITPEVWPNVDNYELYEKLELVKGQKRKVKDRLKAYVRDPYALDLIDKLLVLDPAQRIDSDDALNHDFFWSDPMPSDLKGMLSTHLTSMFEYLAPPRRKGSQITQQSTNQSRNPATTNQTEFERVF

[2] = system: CWR22R; assay: Antiproliferative activity against human 22Rv1 cells assessed as reduction in cell viability incubated for 72 hrs by SRB assay; assay type: functional, cell-based; details: 22Rv1, 72 h
[3] = target: T2, Protein cereblon/Cyclin-dependent kinase 9 (Homo sapiens, UniProt P50750+Q96SW2); assay: PROTAC activity at CRBN/CDK9 in human 22Rv1 cells assessed as degradation of CDK9 protein at 100 nM incubated for 12 hrs by Western blotting analysis relative to control; assay type: cell-based
T2 sequence (P50750 whole entry, looked up): as the sequence (P50750 whole entry) above
T2 sequence (Q96SW2 whole entry, looked up): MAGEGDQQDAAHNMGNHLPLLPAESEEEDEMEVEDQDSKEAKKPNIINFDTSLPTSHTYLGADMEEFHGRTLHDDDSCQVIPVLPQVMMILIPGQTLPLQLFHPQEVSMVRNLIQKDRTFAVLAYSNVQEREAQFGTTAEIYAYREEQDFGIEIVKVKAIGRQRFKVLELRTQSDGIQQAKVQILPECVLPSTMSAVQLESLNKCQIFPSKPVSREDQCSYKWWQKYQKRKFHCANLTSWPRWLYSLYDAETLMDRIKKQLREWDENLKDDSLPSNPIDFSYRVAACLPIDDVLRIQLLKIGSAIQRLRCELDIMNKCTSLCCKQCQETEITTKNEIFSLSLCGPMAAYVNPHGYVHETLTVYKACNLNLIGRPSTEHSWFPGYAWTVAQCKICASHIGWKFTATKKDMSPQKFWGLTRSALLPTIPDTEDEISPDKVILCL

[4] = Solubility of the compound in water at pH 7.4 by shake flask method; assay type: physicochemical
[5] = Solubility of the compound in water at pH 6.0 by shake flask method; assay type: physicochemical
[6] = target: T2, Protein cereblon/Cyclin-dependent kinase 9; assay: PROTAC activity at CRBN/CDK9 in human 22Rv1 cells assessed as degradation of CDK9 protein at 100 nM incubated for 12 hrs by Western blotting analysis; assay type: cell-based
[7] = target: T1, Cyclin-dependent kinase 9; assay: Inhibition of CDK9 (unknown origin) in presence of ATP by ADP-Glo kinase assay
[8] = target: T2, Protein cereblon/Cyclin-dependent kinase 9; assay: PROTAC activity at CRBN/CDK9 in human 22Rv1 cells assessed as reduction in cyclin T1 expression at 1.5 uM incubated for 24 hrs by Western blotting analysis; assay type: cell-based

SMILES: COc1cc(O)c2c(=O)cc(-c3ccc(N4CCN(C(=O)CNc5cccc6c5C(=O)N(C5CCC(=O)NC5=O)C6=O)CC4)cc3)oc2c1C1=CCN(C)CC1 (stereo not drawn)
- inhibition [1]: 84.1%
- IC50 [2]: 0.1 µM
- Activity [3]: 80%
- solubility thermodynamic [4]: 21 µg/mL (≈ 27.6 µM)
- solubility thermodynamic [5]: < 10 µg/mL

SMILES: COc1cc(O)c2c(=O)cc(-c3ccc(N4CCN(C(=O)CCCCCCCOc5cccc6c5C(=O)N(C5CCC(=O)NC5=O)C6=O)CC4)cc3)oc2c1C1=CCN(C)CC1 (stereo not drawn)
- inhibition [1]: 69.5%
- IC50 [2]: 1.81 µM
- solubility thermodynamic [4]: < 10 µg/mL
- solubility thermodynamic [5]: < 10 µg/mL

SMILES: COc1cc(O)c2c(=O)cc(-c3ccc(N4CCN(C)CC4)cc3)oc2c1C1=CCN(C)CC1
- inhibition [1]: 69.2%
- IC50 [7]: 0.0667 µM
- IC50 [2]: 1.25 µM
- Activity [8]: inactive

The next lines start with results.

- inhibition [1]: 34.2%
- Activity [6]: Active
- solubility thermodynamic [4]: < 10 µg/mL
- solubility thermodynamic [5]: < 10 µg/mL
SMILES: COc1cc(O)c2c(=O)cc(-c3ccc(N4CCN(C(=O)CCCCCCCCCOc5cccc6c5C(=O)N(C5CCC(=O)NC5=O)C6=O)CC4)cc3)oc2c1C1=CCN(C)CC1 (stereo not drawn)
- IC50 [2]: 0.12 µM

- inhibition [1]: 74.2%
- Activity [6]: Active
- solubility thermodynamic [4]: < 10 µg/mL
- solubility thermodynamic [5]: < 10 µg/mL
SMILES: COc1cc(O)c2c(=O)cc(-c3ccc(N4CCN(C(=O)CCCCOc5cccc6c5C(=O)N(C5CCC(=O)NC5=O)C6=O)CC4)cc3)oc2c1C1=CCN(C)CC1 (stereo not drawn)
- IC50 [2]: 0.86 µM

- inhibition [1]: 79%
- Activity [6]: Active
- solubility thermodynamic [4]: < 10 µg/mL
- solubility thermodynamic [5]: < 10 µg/mL
SMILES: COc1cc(O)c2c(=O)cc(-c3ccc(N4CCN(C(=O)CCCOc5cccc6c5C(=O)N(C5CCC(=O)NC5=O)C6=O)CC4)cc3)oc2c1C1=CCN(C)CC1 (stereo not drawn)
- IC50 [2]: 0.41 µM
